The results in this text go back to patent US4024252A, “2-(5-Ethyl-6-bromothiazolo[3,2-b]-5-triazolyl)thiophosphonate esters, compositions and method of use” (priority 1973, dated 1977).

For orientation: LD50 means the dose at which mortality reaches 50%. Low readings indicate greater toxicity, high ones lower toxicity. As a reminder, the mortality is the percentage killed.

≈ marks a conversion by molar mass, not a printed value. Like-named read-outs stand apart in the source and are kept apart here.

Series [1] in a line: Toxicity Test 1, acute oral toxicity. The note with it: mouse, in vivo; for LD50 at 336 h: po, mice, stomach tube, 25% aqueous gum arabic, 2 weeks (Table 7); for LD50: oral. The source says: Suspension of the test compound in 25% aqueous solution of gum arabic was compulsorily treated to six mice by means of a stomack tube and inspection had been made for 2 weeks.
The test system of series [2] is Rice stem borer (Chilo suppressalis Walker). The series can be described thus: Test 4 Insecticidal Activity against Rice stem borer. Type of series: in vivo. The note with it: 168 h, a week after spraying. As to the method: 20 hatched nymph of Rice stem borer (Chilo suppressalis Walker) were inoculated to the potted rice (height: 30 - 40 cm, number: 4/pot). A week after inoculation, 30 ml of fixed concentration of solution containing test compound were sprayed on the rice in which hatched nymph were inhabiting and the pots were kept at the room temperature. A week after spraying, the rice was opened, dead Rice stem borers were counted and mortality (%) was calculated.

Series [3] deals with house flies (Musca domestica Linne). Briefly: Test 1 Insecticidal Activity against Fly. The note with it: topical; for mortality at 0.25 µg/fly: 0.25γ/a fly; for mortality at 0.5 µg/fly: 0.5γ/a fly. In kind it is in vivo. How it is done: Fixed concentration of acetone solution containing test compound were prepared.
20 pieces of female adults of house flies (Musca domestica Linne) were tested with 1 μl of acetone solution at their thoracie dorsal by microcylinge and kept at a temperature of 25° C and at a humidity of 65%. 24 hours and 48 hours after treatment, dead flies were counted and mortality (%) was calculated.

Series [4] concerns northern house mosquito (Culex pipiens molestus Forskal). The series can be described thus: Test 6 Insecticidal Activity against Mosquito. In kind it is in vivo. The note with it: 24 hours after inoculation, aqueous suspension of wettable powder. How it is done: An aqueous suspension of formulated wettable powder were poured in 200 ml beaker and in which 20 northern house mosquito (Culex pipiens molestus Forskal) were inoculated.

Series [5] in a line: Toxicity Test 2, medium tolerated limit in carp. In kind it is in vivo, Cyprinus carpio. The note with it: water. How it is done: The test compound was dissolved in dimethylformamide and said solution was added to 20 liters of water containing 10 carps (Cyprinus carpio) in a fixed concentration.
Dead fish within 48 hours from the addition of test compounds was counted.
The results were shown in Table 8 as medium tolerated limit (TLm).
*TLm is the concentration of test compound which half the number of fish

Series [6] relates to desert spider mite (Tetranychus desertorum Banks). The series can be described thus: Test 3 Test for Control of Mite. Type of series: in vivo. The note with it: 72 h, read-out: Rating of mortality. How it is done:
About 30 adult female mites of desert spider mite (Tetranychus desertorum Banks) laid on main leaves of the potted kidney bean plants grown 7 to 10 days stage after aprouting. One day later, the wounded mites were removed from the plants. The compounds to be tested were sprayed on the plants as water suspension of emulsifiable concentrate prepared by the method of Example 6. After 1 day and 3 days from spraying, dead mites were counted and mortality (%) was calculated.

Series [7] relates to Cabbage armyworm (Leucania separate Walker). The series can be described thus: Test 2 Insecticidal Activity against Cabbage armyworm. In kind it is in vivo. As to the method:
10 Multigeneration bred armyworms (Leucania separate Walker) were used for one experimental zone.
[…] Then the leaf was set an filter paper having 9 cm diameter in a schale. The test insects were inoculated into the dish and the cover was put on it. After 1 day and 3 days from inoculation, dead insects were counted and mortality (%) were calculated. The results were shown in

For series [8], the system named is tobacco cutworms (Prodenia litura Fabricius). The series can be described thus: Test 5 Test for Control of Tobacco cutworm. The settings on record: 72 h, 3 days; for mortality at 31.3 ppm: 31.3 p.p.m.; for mortality at 62.5 ppm: 62.5 p.p.m.; for mortality at 125 ppm: 125 p.p.m. In kind it is in vivo. How it is done:
Then the leaf and 5 tobacco cutworms (Prodenia litura Fabricius) of 3 stages larva were put into a covered dish.
The test was carried out twice. After 3 days from inoculation, dead insects were counted and mortality (%) was calculated.

Where [9] appears, read: 48 hours (Table 8), read-out: TLm (medium tolerated limit).
[10] abbreviates: 48 hrs, read-out: medium tolerance limit (48 hrs) for carp.

For the compound `CCc1c(Br)sc2nc(OP(=S)(OC(C)C)OC(C)C)nn12` [drawing 12], the median lethal dose (LD50) at 336 h in series [1] is greater than 200 mg/kg.
For the compound `CCOP(=S)(OCC)Oc1nc2scc(C)n2n1` [Comparison compound, O,O-diethyl-2-(5-methylthiazolo[3,2-b]-s-triazolyl)thionophosphate, reference compound], the mortality at 15.6 ppm in series [2] (15.6 ppm) came to 84%. Further, the mortality at 31.3 ppm in series [2] was found to be 100%; in series [7] (24 h, 1 day) it was 70%; in series [7] (72 h, 3 days), 100%; in series [8], 0%. Also, the mortality at 0.25 µg/fly amounted to 0% in series [3] (24 hrs.) and 10% in series [3] (48 hrs.). For the same compound, the mortality at 0.5 µg/fly in series [3] (24 hrs.) and in series [3] (48 hrs.) was 70% each time. For the same compound, the LC50 in series [4] was determined as 0.04 µg/mL (≈ 0.13 µM). In series [5] (setting [9]), the LC50 at 48 h was less than 0.5 µg/mL. The LD50 in series [1] lay within 33 to 50 mg/kg. For the same compound, the LD50 at 336 h in series [1] was in the range of 33 to 50 mg/kg. In addition, the mortality at 500 ppm in series [6] stood at 100%. Besides, the mortality at 15.7 ppm in series [7] (24 h) is 30%; in series [7] (72 h), 80%. The mortality at 7.8 ppm was 0% in series [7] (24 h, 1 day) and 0% in series [7] (72 h, 3 days). The mortality at 62.5 ppm in series [8] was determined as 80%. Besides, the mortality at 125 ppm in series [8] was found to be 100%.
Regarding `CCOP(=S)(OCC)Oc1nc2sc(Br)c(C)n2n1` [O,O-diethyl-2-(5-methyl-6-bromothiazolo[3,2-b]-s-triazolyl)thionophosphate, reference compound], the LC50 at 48 h in series [5] (setting [10]) was less than 0.05 µg/mL. The compound also had a 50% lethal dose (LD50) in series [1] of 150 mg/kg.
As for `CCc1c(Br)sc2nc(OP(=S)(OC)OC)nn12` [drawing 15], the LC50 at 48 h in series [5] (setting [9]) was greater than 5 µg/mL.
Turning to `CCc1c(Br)sc2nc(OP(=S)(OC(C)C)OC(C)C)nn12` [drawing 16], the LC50 at 48 h in series [5] (setting [9]) is greater than 5 µg/mL.
Turning to `CCc1c(Br)sc2nc(OP(=S)(OC)OC)nn12` [drawing 11], in series [1], the LD50 at 336 h is greater than 200 mg/kg.
Consider `CCc1c(Br)sc2nc(OP(=S)(OC(C)C)OC(C)C)nn12` [Example 3, O,O-diisopropyl 2-(5-ethyl-6-bromothiazolo[3,2-b]-s-triazolyl)thionophosphate], for which the mortality at 15.7 ppm is 60% in series [7] (24 h) and 100% in series [7] (72 h). Further, the mortality at 7.8 ppm stood at 50% in series [7] (24 h, 1 day) and 90% in series [7] (72 h, 3 days). The mortality at 31.3 ppm came out at 100% in series [7] (24 h, 1 day) and 100% in series [7] (72 h, 3 days).
For `CCOP(=S)(OCC)Oc1nc2sc(Br)c(CC)n2n1` [Example 2, O,O-Diethyl 2-(5-ethyl-6-bromothiazolo[3,2-b]-s-triazolyl) thionophosphate], the mortality at 7.8 ppm worked out at 91% in series [2] (7.8 ppm); 60% in series [7] (24 h, 1 day); 100% in series [7] (72 h, 3 days). For the same compound, the mortality at 31.3 ppm was 100% in series [2]; 100% in series [7] (24 h, 1 day); 100% in series [7] (72 h, 3 days); 80% in series [8]. In addition, the mortality at 0.25 µg/fly worked out at 30% in series [3] (24 hrs.) and 40% in series [3] (48 hrs.). Also, the mortality at 0.5 µg/fly in series [3] (24 hrs.) and in series [3] (48 hrs.) was 100% each time. In series [4], this compound showed an LC50 of 0.003 µg/mL (≈ 0.0075 µM). The LC50 at 48 h in series [5] (setting [10]) amounted to 18.5 µg/mL. The compound also showed an LD50 in series [1] of 280 mg/kg. Moreover, the median lethal dose (LD50) at 336 h in series [1] is 280 mg/kg. In series [6], the mortality at 500 ppm is 100%. In addition, the figures for the mortality at 15.7 ppm in series [7] (24 h) and in series [7] (72 h) were 90% and 100%, respectively. Moreover, the mortality at 15.6 ppm in series [8] (15.6 p.p.m.) was found to be 60%. In addition, the mortality at 62.5 ppm in series [8] amounted to 100%. Further, the mortality at 125 ppm in series [8] is 100%.
Take `CCc1c(Br)sc2nc(OP(=S)(OC)OC)nn12` [Example 1, O,O-Dimethyl 2-(5-ethyl-6-bromothiazolo[3,2-b]s-triazolyl) thionophosphate]: the mortality at 500 ppm in series [6] came to 100%. Further, the figures for the mortality at 15.7 ppm in series [7] (24 h) and in series [7] (72 h) were 60% and 100%, respectively. Further, the mortality at 7.8 ppm worked out at 50% in series [7] (24 h, 1 day) and 90% in series [7] (72 h, 3 days). The mortality at 31.3 ppm in series [7] (24 h, 1 day) was determined as 100%; in series [7] (72 h, 3 days) it was 100%.
